From patent publication US4650801A, “Anti-cancer compositions for delivering 5-fluorouracil” (Taiho Pharmaceutical Company, Ltd., priority 1978, dated 1987)

Test system: sarcoma 180
Test: Anti-cancer effect on subcutaneously transplanted sarcoma 180 in mice
Format: in vivo, mouse
Experimental: The anti-cancer compositions of this invention are tested in mice by the following methods to determine acute toxicity, anti-cancer effect and therapeutic index
Tissues of sarcoma 180, 2×10^6, are subcutaneously transplanted in the back of male mice of ICR strain (6 mice in each group). A 5-fluorouracil (a) and uracil derivative (b) in the proportions listed in Tables 1-16 are suspended in a 5% solution of gum arabic to prepare a suspension. Twenty-four hours after the transplantation and during the following seven consecutive days the suspension is orally given to the animal once every day. On the 10th day after the transplantation, the tumor is removed from the body and weighed to calculate the average weight (T) of the tumors in the group to which the composition has been given and the corresponding weight (C) in the control group to determine the ratio T/C.

O=c1[nH]cc(F)c(=O)n1C1CCCO1 (stereo not shown) [Compound 6, 3-(2-Tetrahydrofuryl)-5-fluorouracil]
ED50 ((b) = 1(2-Tetrahydrofuryl)uracil, (b)/(a) mol ratio 1): 51 mg/kg | ED50 ((b) = 1(2-Tetrahydrofuryl)uracil, (b)/(a) mol ratio 2): 29 mg/kg | ED50 ((b) = 1(2-Tetrahydrofuryl)uracil, (b)/(a) mol ratio 5): 18 mg/kg | ED50 ((b) = 1Acetyluracil, (b)/(a) mol ratio 1): 32 mg/kg | ED50 ((b) = 1Acetyluracil, (b)/(a) mol ratio 2): 26 mg/kg | ED50 ((b) = 1Acetyluracil, (b)/(a) mol ratio 5): 16 mg/kg | ED50 ((b) = 1Cyclohexylcarbamoyluracil, (b)/(a) mol ratio 0.5): 55 mg/kg | ED50 ((b) = 1Cyclohexylcarbamoyluracil, (b)/(a) mol ratio 2): 46 mg/kg | ED50 ((b) = 1Cyclohexylcarbamoyluracil, (b)/(a) mol ratio 5): 33 mg/kg | ED50 ((b) = 1n-Hexylcarbamoyluracil, (b)/(a) mol ratio 1): 59 mg/kg | ED50 ((b) = 1n-Hexylcarbamoyluracil, (b)/(a) mol ratio 2): 41 mg/kg | ED50 ((b) = 1n-Hexylcarbamoyluracil, (b)/(a) mol ratio 10): 28 mg/kg | ED50 ((b) = 2'-Deoxycytidine, (b)/(a) mol ratio 1): 59 mg/kg | ED50 ((b) = 2'-Deoxycytidine, (b)/(a) mol ratio 2): 47 mg/kg | ED50 ((b) = 2'-Deoxycytidine, (b)/(a) mol ratio 10): 34 mg/kg | ED50 ((b) = 2'-Deoxyuridine, (b)/(a) mol ratio 1): 53 mg/kg | ED50 ((b) = 2'-Deoxyuridine, (b)/(a) mol ratio 2): 42 mg/kg | ED50 ((b) = 2'-Deoxyuridine, (b)/(a) mol ratio 20): 26 mg/kg | ED50 ((b) = 3Benzoyluracil, (b)/(a) mol ratio 1): 42 mg/kg | ED50 ((b) = 3Benzoyluracil, (b)/(a) mol ratio 2): 32 mg/kg | ED50 ((b) = 3Benzoyluracil, (b)/(a) mol ratio 10): 25 mg/kg | ED50 ((b) = 5Bromo-2'-deoxyuridine, (b)/(a) mol ratio 0.5): 49 mg/kg | ED50 ((b) = 5Bromo-2'-deoxyuridine, (b)/(a) mol ratio 2): 30 mg/kg | ED50 ((b) = 5Bromo-2'-deoxyuridine, (b)/(a) mol ratio 10): 22 mg/kg | ED50 ((b) = 5Bromouracil, (b)/(a) mol ratio 0.5): 39 mg/kg | ED50 ((b) = 5Bromouracil, (b)/(a) mol ratio 2): 26 mg/kg | ED50 ((b) = 5Bromouracil, (b)/(a) mol ratio 10): 21 mg/kg | ED50 ((b) = 5Iodouracil, (b)/(a) mol ratio 1): 26 mg/kg | ED50 ((b) = 5Iodouracil, (b)/(a) mol ratio 2): 17 mg/kg | ED50 ((b) = 5Iodouracil, (b)/(a) mol ratio 5): 11 mg/kg | ED50 ((b) = Cytidine, (b)/(a) mol ratio 1): 58 mg/kg | ED50 ((b) = Cytidine, (b)/(a) mol ratio 2): 39 mg/kg | ED50 ((b) = Cytidine, (b)/(a) mol ratio 10): 34 mg/kg | ED50 ((b) = Cytosine, (b)/(a) mol ratio 1): 56 mg/kg | ED50 ((b) = Cytosine, (b)/(a) mol ratio 2): 41 mg/kg | ED50 ((b) = Cytosine, (b)/(a) mol ratio 10): 24 mg/kg | ED50 ((b) = Orotic acid, (b)/(a) mol ratio 1): 69 mg/kg | ED50 ((b) = Orotic acid, (b)/(a) mol ratio 2): 61 mg/kg | ED50 ((b) = Orotic acid, (b)/(a) mol ratio 20): 46 mg/kg | ED50 ((b) = Thymidine, (b)/(a) mol ratio 0.5): 67 mg/kg | ED50 ((b) = Thymidine, (b)/(a) mol ratio 2): 63 mg/kg | ED50 ((b) = Thymidine, (b)/(a) mol ratio 10): 60 mg/kg | ED50 ((b) = Thymine, (b)/(a) mol ratio 0.5): 48 mg/kg | ED50 ((b) = Thymine, (b)/(a) mol ratio 2): 27 mg/kg | ED50 ((b) = Thymine, (b)/(a) mol ratio 10): 14 mg/kg | ED50 ((b) = Uridine, (b)/(a) mol ratio 1): 43 mg/kg | ED50 ((b) = Uridine, (b)/(a) mol ratio 2): 31 mg/kg | ED50 ((b) = Uridine, (b)/(a) mol ratio 20): 29 mg/kg | ED50 ((b)/(a) mol ratio 0 (alone), oral, 50% cancer inhibition (T/C)): 73 mg/kg
